Laboratory results taken from patent US9057727B2, “Screening methods using G-protein coupled receptors and related compositions” (The General Hospital Corporation, priority 2007, dated 2015).

Experiments:
hPTHR = target: T1, hPTHR (Homo sapiens, UniProt Q03431); experiment: Radioligand dissociation from PTHR in HKRK-B7 membranes with or without GTPγS; format: binding; parameters: expressed in transfected cells
T1 sequence (Q03431 27-593): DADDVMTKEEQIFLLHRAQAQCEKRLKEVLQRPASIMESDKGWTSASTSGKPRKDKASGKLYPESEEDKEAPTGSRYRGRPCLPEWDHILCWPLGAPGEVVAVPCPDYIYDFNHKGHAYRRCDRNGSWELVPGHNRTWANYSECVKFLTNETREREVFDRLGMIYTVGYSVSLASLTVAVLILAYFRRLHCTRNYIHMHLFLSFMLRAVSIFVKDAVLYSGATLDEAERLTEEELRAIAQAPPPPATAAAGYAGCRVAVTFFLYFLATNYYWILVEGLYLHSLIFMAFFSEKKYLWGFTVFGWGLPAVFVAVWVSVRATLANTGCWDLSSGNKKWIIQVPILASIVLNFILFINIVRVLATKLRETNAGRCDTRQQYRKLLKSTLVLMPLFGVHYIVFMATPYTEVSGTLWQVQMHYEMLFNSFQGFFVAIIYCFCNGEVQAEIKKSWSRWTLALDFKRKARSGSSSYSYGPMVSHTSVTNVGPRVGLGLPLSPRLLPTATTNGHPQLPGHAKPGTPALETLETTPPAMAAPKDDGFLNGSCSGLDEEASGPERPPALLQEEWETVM

rat PTHR = target: T2, rat PTHR (Rattus norvegicus, UniProt P25961); experiment: GTPγS inhibition of equilibrium radioligand binding, ROS17/2.8 membranes; parameters: the rat osteoblastic cell line ROS17/2.8, which endogenously expresses the rat PTHR; endogenous in cells; host or cells: ROS 17/2.8 rat osteosarcoma cells (membranes or intact cells)
T2 sequence (P25961 27-591): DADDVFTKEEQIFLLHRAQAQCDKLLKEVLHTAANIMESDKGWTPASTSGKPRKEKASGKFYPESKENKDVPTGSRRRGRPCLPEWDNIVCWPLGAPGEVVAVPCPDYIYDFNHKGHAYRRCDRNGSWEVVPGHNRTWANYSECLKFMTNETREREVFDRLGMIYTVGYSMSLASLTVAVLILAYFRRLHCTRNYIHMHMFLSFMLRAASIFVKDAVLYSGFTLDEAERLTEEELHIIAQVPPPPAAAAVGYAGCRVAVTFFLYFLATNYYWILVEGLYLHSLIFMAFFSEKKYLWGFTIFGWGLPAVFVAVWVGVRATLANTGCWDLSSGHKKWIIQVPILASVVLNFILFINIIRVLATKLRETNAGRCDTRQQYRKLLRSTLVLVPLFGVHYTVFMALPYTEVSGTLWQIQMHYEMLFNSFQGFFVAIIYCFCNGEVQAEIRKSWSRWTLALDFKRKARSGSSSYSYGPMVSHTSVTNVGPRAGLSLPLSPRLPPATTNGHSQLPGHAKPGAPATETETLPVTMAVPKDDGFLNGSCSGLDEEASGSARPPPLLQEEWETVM
Method: FIGS. 2A and 2B are graphs showing GTPγS sensitivity of PTH and PTHrP analog binding to the human and rat PTHRs. Radioligand analog binding to the PTHR in membranes prepared from HKRK-B7 (FIG. 2A) or ROS 17/2.8 cells (FIG. 2B) was assessed under near-equilibrium conditions in the absence or presence of varying concentrations of GTPγS. Data are expressed as a percent of radioactivity specifically bound (SB) in the absence of GTPγS. […] The radioligands studied were ^125I-[Nle^8,21,Tyr^34]PTH(1-34)NH2 (SEQ ID NO:123); [Tyr^36]PTHrP(1-36)NH2 (SEQ ID NO:124); [Ile^5,Tyr^36]PTHrP(1-36)NH2 (SEQ ID NO:125) and [Aib^1,3,Nle^8,Gln^10,Har^11,Ala^12,Trp^14,Tyr^15]hPTH(1-15)NH2 (SEQ ID NO:126).
The effects of GTPγS on the binding of these radioligands to the PTHR under approximate-equilibrium conditions was assessed. by incubating with cell membranes for 90 minutes in the absence or presence of GTPγS at varying concentrations. […]
Binding reactions performed with ^125I-[Aib^1,3,M]PTH(1-15) radioligand were assembled and incubated in the wells of the 96-well, Multi-Screen vacuum filtration plates. […] For both radioligands, the non-specific binding was determined in reactions containing a saturating concentration of the unlabeled analog of the radioligand. The specifically bound radioactivity was calculated as a percent of the radioactivity specifically bound in the absence of a competing ligand or GTPγS.

fraction of complexes stable, decaying slowly (hPTHR; absence of GTPγS): 68%
fraction of complexes unstable, decaying rapidly (hPTHR; with GTPγS): 72%
sensitivity of binding to GTPγS, in words (rat PTHR): strongly inhibited
Substance: ^125I[Tyr^36]PTHrP(1-36)NH2 [^125I-PTHrP(1-36)]
